# Key:
# Cytochrome P450 2A5 = biological target: T1, Cytochrome P450 2A5 (Mus musculus, UniProt P20852); assay: Inhibition of mouse CYP2A5
# T1 sequence (P20852 whole entry): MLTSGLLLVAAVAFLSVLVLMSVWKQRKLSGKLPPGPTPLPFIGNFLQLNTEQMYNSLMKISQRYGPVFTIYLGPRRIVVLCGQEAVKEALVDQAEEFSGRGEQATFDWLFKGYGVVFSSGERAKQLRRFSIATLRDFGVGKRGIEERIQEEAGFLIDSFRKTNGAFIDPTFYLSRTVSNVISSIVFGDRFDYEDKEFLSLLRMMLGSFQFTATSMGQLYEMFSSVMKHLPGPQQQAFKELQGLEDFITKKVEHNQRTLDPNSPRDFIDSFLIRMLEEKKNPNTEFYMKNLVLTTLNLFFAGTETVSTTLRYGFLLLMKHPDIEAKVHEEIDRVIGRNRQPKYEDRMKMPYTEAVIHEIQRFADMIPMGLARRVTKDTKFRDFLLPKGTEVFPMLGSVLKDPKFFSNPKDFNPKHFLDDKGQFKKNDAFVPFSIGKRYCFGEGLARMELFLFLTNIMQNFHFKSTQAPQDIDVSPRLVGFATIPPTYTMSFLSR
# Cytochrome P450 2A6 = biological target: T2, Cytochrome P450 2A6 (Homo sapiens, UniProt P11509); assay: Inhibition of human CYP2A6
# T2 sequence (P11509 whole entry): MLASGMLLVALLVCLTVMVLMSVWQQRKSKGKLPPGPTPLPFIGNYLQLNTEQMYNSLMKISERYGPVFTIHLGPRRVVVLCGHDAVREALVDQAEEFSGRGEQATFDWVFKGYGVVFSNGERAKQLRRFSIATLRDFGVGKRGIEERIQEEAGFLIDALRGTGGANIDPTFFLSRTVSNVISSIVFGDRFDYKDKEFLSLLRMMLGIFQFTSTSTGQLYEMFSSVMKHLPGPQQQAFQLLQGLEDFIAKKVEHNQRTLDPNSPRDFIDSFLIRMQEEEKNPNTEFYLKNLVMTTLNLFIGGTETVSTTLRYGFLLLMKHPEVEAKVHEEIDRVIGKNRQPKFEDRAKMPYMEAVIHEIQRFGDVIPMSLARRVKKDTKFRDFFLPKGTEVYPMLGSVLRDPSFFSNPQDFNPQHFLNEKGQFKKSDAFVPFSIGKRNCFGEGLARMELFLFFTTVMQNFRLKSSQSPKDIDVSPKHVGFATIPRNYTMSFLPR
Structure (SMILES),IC50 (Cytochrome P450 2A5),IC50 (Cytochrome P450 2A6)
Clc1ccc(-c2ccccc2)cc1,13 µM,
CN1C(=O)CCC1c1cccnc1 (centres undefined),1500 µM,
CN1CCC[C@H]1c1cccnc1 [NICOTINE],160 µM,579 µM

# — ChEMBL document CHEMBL1158374, “Exploring QSAR and QAAR for inhibitors of cytochrome P450 2A6 and 2A5 enzymes using GFA and G/PLS techniques” (Eur J Med Chem, 2009)
